{"source": "patent US8952024B2", "about": "“Herbicidal pyrimidone derivatives” (E I du Pont de Nemours and Company, priority 2009, dated 2015)", "assay_type_in_all_cases": "in vivo", "key": {"[1]": {"system": "galium (catchweed bedstraw, Galium aparine)", "assay": "Test C plant response", "conditions": "Preemergence, scale 0 to 100"}, "wild oat (Avena fatua)": {"system": "wild oat (Avena fatua)", "assay": "Test C plant response", "conditions": "Preemergence, scale 0 to 100"}, "[2]": {"system": "Italian ryegrass (Lolium multiflorum)", "assay": "Test C plant response", "conditions": "Preemergence, scale 0 to 100"}, "[3]": {"system": "oilseed rape (Brassica napus)", "assay": "Test C plant response", "conditions": "Preemergence, scale 0 to 100"}, "[4]": {"system": "winter wheat (Triticum aestivum)", "assay": "Test C plant response", "conditions": "Preemergence, scale 0 to 100"}, "[5]": {"system": "spring barley (Hordeum vulgare)", "assay": "Test C plant response", "conditions": "Preemergence, scale 0 to 100"}, "[6]": {"system": "green foxtail (Setaria viridis)", "assay": "Test C plant response", "conditions": "Preemergence, scale 0 to 100"}, "[7]": {"system": "buckwheat (wild buckwheat, Polygonum convolvulus)", "assay": "Test C plant response", "conditions": "Preemergence, scale 0 to 100"}, "kochia (Kochia scoparia)": {"system": "kochia (Kochia scoparia)", "assay": "Test C plant response", "conditions": "Preemergence, scale 0 to 100"}, "[8]": {"system": "deadnettle (henbit deadnettle, Lamium amplexicaule)", "assay": "Test C plant response", "conditions": "Preemergence, scale 0 to 100"}, "[9]": {"system": "bromegrass (downy bromegrass, Bromus tectorum)", "assay": "Test C plant response", "conditions": "Preemergence, scale 0 to 100"}, "[10]": {"system": "windgrass (Apera spica-venti)", "assay": "Test C plant response", "conditions": "Preemergence, scale 0 to 100"}, "[11]": {"system": "bluegrass (annual bluegrass, Poa annua)", "assay": "Test C plant response", "conditions": "Preemergence, scale 0 to 100"}, "[12]": {"system": "sprangletop (bearded (i.e. Brdd.) sprangletop, Leptochloa fascicularis)", "assay": "Test E flooded paddy rice and weeds", "conditions": "applied to paddy water, 21 days, scale 0 to 100", "excerpt": "Three plastic pots (ca. 16-cm diameter) for each application were partially filled with sterilized Tama silt loam soil comprising a 35:50:15 ratio of sand, silt and clay and 2.6% organic matter. Separate plantings for each of the three pots were as follows. Seeds from the U.S. of ducksalad (Heteranthera limosa), sedge (smallflower umbrella sedge, Cyperus difformis), ricefield bulrush (Scirpus mucronatus) and redstem (purple redstem, Ammannia coccinea), were planted into one 16-cm pot for each rate. Seeds from the U.S. of flatsedge (rice flatsedge, Cyperus iria), sprangletop (bearded (i.e. Brdd.) sprangletop, Leptochloa fascicularis), one stand of 9 or 10 water seeded rice seedlings (Oryza sativa cv. ‘Japonica—M202’), and two stands of 3 or 4 transplanted rice seedlings (Oryza sativa cv. ‘Japonica—M202’) were planted into one 16-cm pot for each rate. Seeds from the U.S. of barnyardgrass (Echinochloa crus-galli), late watergrass (Echinochloa oryzicola), early watergrass (Echinochloa oryzoides) and junglerice (Echinochloa colona) were planted into one 16-cm pot for each rate. Plantings were sequential so that crop and weed species were at the 2.0 to 2.5-leaf stage at time of treatment.\nPotted plants were grown in a greenhouse with day/night temperature settings of 30/27° C., and supplemental balanced lighting was provided to maintain a 16-hour photoperiod. Test pots were maintained in the greenhouse until test completion.\nAt time of treatment, test pots were flooded to 3 cm above the soil surface, treated by application of test compounds directly to the paddy water, and then maintained at that water depth for the duration of the test. Effects of treatments on rice and weeds were visually evaluated by comparison to untreated controls after 21 days. Plant response ratings, summarized in Table E, are based on a scale of 0 to 100 where 0 is no effect and 100 is complete control. A dash (-) response means no test result."}}, "data": [{"smiles": "Cc1ccccc1-n1c(-c2ccccc2)ncc(C(=O)C2=C(O)CCCC2=O)c1=O", "note": "[Compound 12]", "values": [{"measurement": "Plant response rating: Galium", "setting": "[1]; 62 g ai/ha", "value": 35}, {"measurement": "Plant response rating: Galium", "setting": "[1]; 125 g ai/ha", "value": 35}, {"measurement": "Plant response rating: Galium", "setting": "[1]; 16 g ai/ha", "value": 0}, {"measurement": "Plant response rating: Galium", "setting": "[1]; 31 g ai/ha", "value": 0}, {"measurement": "Plant response rating: Oat, Wild", "setting": "wild oat (Avena fatua); 62 g ai/ha", "value": 0}, {"measurement": "Plant response rating: Oat, Wild", "setting": "wild oat (Avena fatua); 125 g ai/ha", "value": 0}, {"measurement": "Plant response rating: Oat, Wild", "setting": "wild oat (Avena fatua); 16 g ai/ha", "value": 0}, {"measurement": "Plant response rating: Oat, Wild", "setting": "wild oat (Avena fatua); 31 g ai/ha", "value": 0}, {"measurement": "Plant response rating: Ryegrass, Italian", "setting": "[2]; 62 g ai/ha", "value": 0}, {"measurement": "Plant response rating: Ryegrass, Italian", "setting": "[2]; 125 g ai/ha", "value": 0}, {"measurement": "Plant response rating: Ryegrass, Italian", "setting": "[2]; 16 g ai/ha", "value": 0}, {"measurement": "Plant response rating: Ryegrass, Italian", "setting": "[2]; 31 g ai/ha", "value": 0}, {"measurement": "Plant response rating: Oilseed Rape", "setting": "[3]; 62 g ai/ha", "value": 30}, {"measurement": "Plant response rating: Oilseed Rape", "setting": "[3]; 125 g ai/ha", "value": 40}, {"measurement": "Plant response rating: Oilseed Rape", "setting": "[3]; 16 g ai/ha", "value": 0}, {"measurement": "Plant response rating: Oilseed Rape", "setting": "[3]; 31 g ai/ha", "value": 20}, {"measurement": "Plant response rating: Wheat, Winter", "setting": "[4]; 62 g ai/ha", "value": 0}, {"measurement": "Plant response rating: Wheat, Winter", "setting": "[4]; 125 g ai/ha", "value": 0}, {"measurement": "Plant response rating: Wheat, Winter", "setting": "[4]; 16 g ai/ha", "value": 0}, {"measurement": "Plant response rating: Wheat, Winter", "setting": "[4]; 31 g ai/ha", "value": 0}, {"measurement": "Plant response rating: Barley, Spring", "setting": "[5]; 62 g ai/ha", "value": 0}, {"measurement": "Plant response rating: Barley, Spring", "setting": "[5]; 125 g ai/ha", "value": 0}, {"measurement": "Plant response rating: Barley, Spring", "setting": "[5]; 16 g ai/ha", "value": 0}, {"measurement": "Plant response rating: Barley, Spring", "setting": "[5]; 31 g ai/ha", "value": 0}, {"measurement": "Plant response rating: Foxtail, Green", "setting": "[6]; 62 g ai/ha", "value": 0}, {"measurement": "Plant response rating: Foxtail, Green", "setting": "[6]; 125 g ai/ha", "value": 0}, {"measurement": "Plant response rating: Foxtail, Green", "setting": "[6]; 16 g ai/ha", "value": 0}, {"measurement": "Plant response rating: Foxtail, Green", "setting": "[6]; 31 g ai/ha", "value": 0}, {"measurement": "Plant response rating: Buckwheat, Wild", "setting": "[7]; 62 g ai/ha", "value": 0}, {"measurement": "Plant response rating: Buckwheat, Wild", "setting": "[7]; 125 g ai/ha", "value": 40}, {"measurement": "Plant response rating: Buckwheat, Wild", "setting": "[7]; 16 g ai/ha", "value": 0}, {"measurement": "Plant response rating: Buckwheat, Wild", "setting": "[7]; 31 g ai/ha", "value": 0}, {"measurement": "Plant response rating: Kochia", "setting": "kochia (Kochia scoparia); 62 g ai/ha", "value": 5}, {"measurement": "Plant response rating: Kochia", "setting": "kochia (Kochia scoparia); 125 g ai/ha", "value": 25}, {"measurement": "Plant response rating: Kochia", "setting": "kochia (Kochia scoparia); 16 g ai/ha", "value": 5}, {"measurement": "Plant response rating: Kochia", "setting": "kochia (Kochia scoparia); 31 g ai/ha", "value": 5}, {"measurement": "Plant response rating: Deadnettle", "setting": "[8]; 62 g ai/ha", "value": 90}, {"measurement": "Plant response rating: Deadnettle", "setting": "[8]; 125 g ai/ha", "value": 100}, {"measurement": "Plant response rating: Deadnettle", "setting": "[8]; 16 g ai/ha", "value": 35}, {"measurement": "Plant response rating: Deadnettle", "setting": "[8]; 31 g ai/ha", "value": 50}, {"measurement": "Plant response rating: Bromegrass, Downy", "setting": "[9]; 62 g ai/ha", "value": 0}, {"measurement": "Plant response rating: Bromegrass, Downy", "setting": "[9]; 125 g ai/ha", "value": 0}, {"measurement": "Plant response rating: Bromegrass, Downy", "setting": "[9]; 16 g ai/ha", "value": 0}, {"measurement": "Plant response rating: Bromegrass, Downy", "setting": "[9]; 31 g ai/ha", "value": 0}, {"measurement": "Plant response rating: Windgrass", "setting": "[10]; 62 g ai/ha", "value": 40}, {"measurement": "Plant response rating: Windgrass", "setting": "[10]; 125 g ai/ha", "value": 40}, {"measurement": "Plant response rating: Windgrass", "setting": "[10]; 16 g ai/ha", "value": 20}, {"measurement": "Plant response rating: Windgrass", "setting": "[10]; 31 g ai/ha", "value": 20}, {"measurement": "Plant response rating: Bluegrass", "setting": "[11]; 62 g ai/ha", "value": 20}, {"measurement": "Plant response rating: Bluegrass", "setting": "[11]; 125 g ai/ha", "value": 35}, {"measurement": "Plant response rating: Bluegrass", "setting": "[11]; 16 g ai/ha", "value": 0}, {"measurement": "Plant response rating: Bluegrass", "setting": "[11]; 31 g ai/ha", "value": 0}]}, {"smiles": "COc1ccc(-n2c(-c3ccccc3)ncc(C(=O)C3=C(O)CCCC3=O)c2=O)cc1OC", "note": "[Compound 218]", "values": [{"measurement": "Plant response rating, Sprangletop, Brdd., Flood", "setting": "[12]; 32 g ai/ha", "value": 65}, {"measurement": "Plant response rating, Sprangletop, Brdd., Flood", "setting": "[12]; 64 g ai/ha", "value": 70}, {"measurement": "Plant response rating, Sprangletop, Brdd., Flood", "setting": "[12]; 125 g ai/ha", "value": 70}, {"measurement": "Plant response rating, Sprangletop, Brdd., Flood", "setting": "[12]; 250 g ai/ha", "value": 95}]}]}
